The source of these data is patent US7772263B2, “Compounds for the treatment of inflammatory disorders” (Schering Corporation, priority 2006, dated 2010).

Bounds are passed on as bounds.

The target of the first assay is T1, purified catalytic domain of recombinant human TACE (rhTACEc) (Homo sapiens, UniProt P78536, N452Q/S266A).
T1 construct: rhTACEc, Residue 215 to 477 with two mutation (S266A and N4520) and a 6×His tail; 6xHis (C); made in house; host or cells: baculovirus/Hi5 insect cells
T1 sequence (P78536 215-477 S266A/N452Q limits assumed): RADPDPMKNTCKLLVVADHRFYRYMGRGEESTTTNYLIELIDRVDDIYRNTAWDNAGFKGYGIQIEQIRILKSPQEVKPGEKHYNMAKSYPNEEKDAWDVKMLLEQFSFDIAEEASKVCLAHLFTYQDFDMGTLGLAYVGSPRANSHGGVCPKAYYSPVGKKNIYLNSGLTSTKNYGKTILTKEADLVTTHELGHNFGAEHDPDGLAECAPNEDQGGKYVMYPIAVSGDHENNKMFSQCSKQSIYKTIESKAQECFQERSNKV
Description: TACE kinetic assay, cleavage of internally quenched fluorescent peptide substrate SPDL-3. The conditions noted are these: TACE inhibition, Table 1001; read-out: Ki Rating. The class given is biochemical.
On to `COc1ccc2c(c1)C(=O)N(CC1(C#Cc3cnn(C)c3)NC(=O)NC1=O)C2` (centres unmarked) [Compound 312B], for which the Ki is below 5 nM.
On to `COc1ccc2c(c1)C(=O)N(CC1(C#Cc3cccnc3)NC(=O)NC1=O)C2` (centres unmarked) [Compound 312], for which the inhibition constant (Ki) is below 5 nM.
Consider `COc1ccc2c(c1)C(=O)N(CC1(C#Cc3ccc(F)cc3F)NC(=O)NC1=O)C2` (centres unmarked) [Compound 315A], for which the Ki is below 5 nM.
Same read-out and setting: the figure for `COc1ccc2c(c1)C(=O)N(CC1(C#Cc3ccc(F)cc3)NC(=O)NC1=O)C2` (centres unmarked) [Compound 315] is below 5 nM.
On to `COc1ccc2c(c1)C(=O)N(C[C@@]1(C#Cc3cccnc3)NC(=O)NC1=O)C2` [Compound 400B], for which the inhibition constant (Ki) is below 5 nM.
On to `C#C[C@]1(CN2Cc3ccc(OC)cc3C2=O)NC(=O)NC1=O` [Compound 401], for which the inhibitory constant (Ki) was below 5 nM.
Turning to `COc1ccc2c(c1)C(=O)N(C[C@@]1(C#Cc3cncc(-c4cnn(C)c4)c3)NC(=O)NC1=O)C2` [Compound 409C], the Ki is below 5 nM.
As for `COc1ccc2c(c1)C(=O)N(C[C@@]1(C#Cc3cncc(N4CCCC4)c3)NC(=O)NC1=O)C2` [Compound 410B], the Ki was below 5 nM.
Turning to `COc1ccc2c(c1)C(=O)N(C[C@@]1(C#Cc3ccc(F)cc3)NC(=O)NC1=O)C2` [Compound 411], the inhibition constant Ki was below 5 nM.
For `CNc1nc2ccc(C#C[C@]3(CN4Cc5ccc(OC)cc5C4=O)NC(=O)NC3=O)cc2s1` [Compound 412D], the Ki was below 5 nM.
For `COc1ccc2c(c1)C(=O)N(C[C@@]1(C#Cc3ccc(CN4CCCC4)nc3)NC(=O)NC1=O)C2` [Compound 413D], the Ki is below 5 nM.
For the compound `COc1ccc2c(c1)C(=O)N(C[C@@]1(C#Cc3ccc(C4(N)CC4)nc3)NC(=O)NC1=O)C2` [Compound 414B], the Ki is 5 to 25 nM.
With `COc1ccc2c(c1)C(=O)N(C[C@@]1(C#Cc3ccc[nH]c3=O)NC(=O)NC1=O)C2` [Compound 417C], the Ki is below 5 nM.
Regarding `COc1ccc2c(c1)C(=O)N(C[C@@]1(C#Cc3ccc4nn(C)cc4c3)NC(=O)NC1=O)C2` [Compound 421], the Ki is below 5 nM.
Regarding `COc1ccc2c(c1)C(=O)N(C[C@@]1(C#Cc3ccc4nc(C)ccc4c3)NC(=O)NC1=O)C2` [Compound 422], the inhibition constant (Ki) is below 5 nM.
On to `COc1ccc2c(c1)C(=O)N(C[C@@]1(C#Cc3ccc4cnn(C)c4c3)NC(=O)NC1=O)C2` [Compound 423], for which the Ki is below 5 nM.
As to `COc1ccc2c(c1)C(=O)N(C[C@@]1(C#Cc3ccc4cn(C)nc4c3)NC(=O)NC1=O)C2` [Compound 424], the inhibitory constant (Ki) is below 5 nM.
Still for that read-out and setting: with `COc1ccc2c(c1)C(=O)N(C[C@@]1(C#Cc3cncc4ccccc34)NC(=O)NC1=O)C2` [Compound 425] the figure was below 5 nM; with `COc1ccc2c(c1)C(=O)N(C[C@@]1(C#Cc3ccc(F)c(C(F)(F)F)c3)NC(=O)NC1=O)C2` [Compound 426], below 5 nM; with `COc1ccc2c(c1)C(=O)N(C[C@@]1(C#Cc3ccc(C)c(F)c3)NC(=O)NC1=O)C2` [Compound 427], below 5 nM.
Turning to `COc1ccc2c(c1)C(=O)N(C[C@@]1(C#Cc3ccc(C)c(Cl)c3)NC(=O)NC1=O)C2` [Compound 428], the Ki is below 5 nM.
On to `COc1ccc2c(c1)C(=O)N(C[C@@]1(C#Cc3cccc(OC(F)(F)F)c3)NC(=O)NC1=O)C2` [Compound 429], for which the Ki is below 5 nM.
Consider `COc1ccc2c(c1)C(=O)N(C[C@@]1(C#Cc3cncc(F)c3)NC(=O)NC1=O)C2` [Compound 430], for which the Ki is below 5 nM.
As to `COc1ccc2c(c1)C(=O)N(C[C@@]1(C#Cc3ccc(F)c(C)c3)NC(=O)NC1=O)C2` [Compound 432], the Ki is below 5 nM.
For `COc1ccc2c(c1)C(=O)N(C[C@@]1(C#Cc3ccc(F)cc3Cl)NC(=O)NC1=O)C2` [Compound 433], the inhibition constant (Ki) was below 5 nM.
`COc1ccc2c(c1)C(=O)N(C[C@@]1(C#Cc3cc(F)c(F)c(OC)c3)NC(=O)NC1=O)C2` [Compound 434]: the Ki was below 5 nM.
As to `COc1ccc2c(c1)C(=O)N(C[C@@]1(C#Cc3cc(O)c(F)c(F)c3)NC(=O)NC1=O)C2` [Compound 435], the Ki is below 5 nM.
Take `COc1ccc2c(c1)C(=O)N(C[C@@]1(C#Cc3ccc(C(F)(F)F)c(F)c3)NC(=O)NC1=O)C2` [Compound 436]: the Ki is below 5 nM.
The same measure, in the same setting: with `COc1ccc2c(c1)C(=O)N(C[C@@]1(C#Cc3cccc(F)c3C)NC(=O)NC1=O)C2` [Compound 437] the figure was below 5 nM; with `COc1ccc2c(c1)C(=O)N(C[C@@]1(C#Cc3cccc(Cl)c3C)NC(=O)NC1=O)C2` [Compound 438], below 5 nM; with `COc1ccc2c(c1)C(=O)N(C[C@@]1(C#Cc3cc(C)cc(F)c3)NC(=O)NC1=O)C2` [Compound 439], below 5 nM.
In the case of `COc1ccc2c(c1)C(=O)N(C[C@@]1(C#Cc3cc(F)cc(C(F)(F)F)c3)NC(=O)NC1=O)C2` [Compound 440], the inhibition constant (Ki) is below 5 nM.
As to `COc1ccc2c(c1)C(=O)N(C[C@@]1(C#Cc3cccc4ncccc34)NC(=O)NC1=O)C2` [Compound 441], the Ki was below 5 nM.
Same read-out and setting: the figure for `COc1ccc2c(c1)C(=O)N(C[C@@]1(C#Cc3cccc4cnccc34)NC(=O)NC1=O)C2` [Compound 442] is below 5 nM; for `COc1ccc2c(c1)C(=O)N(C[C@@]1(C#Cc3cnc4ccccc4c3)NC(=O)NC1=O)C2` [Compound 443] it is below 5 nM.
The same measure, in the same setting: with `COc1ccc2c(c1)C(=O)N(C[C@@]1(C#Cc3ccc4c(cnn4C)c3)NC(=O)NC1=O)C2` [Compound 444] the figure was below 5 nM; with `COc1ccc2c(c1)C(=O)N(C[C@@]1(C#Cc3cccc(F)c3)NC(=O)NC1=O)C2` [Compound 445], below 5 nM; with `COc1ccc2c(c1)C(=O)N(C[C@@]1(C#Cc3cccc(Cl)c3)NC(=O)NC1=O)C2` [Compound 446], below 5 nM.
Regarding `COc1ccc2c(c1)C(=O)N(C[C@@]1(C#Cc3cccc(C#N)c3)NC(=O)NC1=O)C2` [Compound 447], the inhibition constant (Ki) was below 5 nM.
For the compound `COc1ccc2c(c1)C(=O)N(C[C@@]1(C#Cc3cc(F)cc(F)c3)NC(=O)NC1=O)C2` [Compound 448], the Ki was below 5 nM.
On to `COc1ccc2c(c1)C(=O)N(C[C@@]1(C#Cc3cc(Cl)cc(Cl)c3)NC(=O)NC1=O)C2` [Compound 449], for which the Ki was below 5 nM.
With `COc1ccc2c(c1)C(=O)N(C[C@@]1(C#Cc3cncnc3)NC(=O)NC1=O)C2` [Compound 450], the Ki was below 5 nM.
In the case of `COc1ccc2c(c1)C(=O)N(C[C@@]1(C#Cc3cccc(S(C)(=O)=O)c3)NC(=O)NC1=O)C2` [Compound 451], the inhibitory constant (Ki) is below 5 nM.
Turning to `COc1ccc2c(c1)C(=O)N(C[C@@]1(C#Cc3ccc(Cl)c(F)c3)NC(=O)NC1=O)C2` [Compound 452], the inhibition constant Ki is below 5 nM.
On to `COc1ccc2c(c1)C(=O)N(C[C@@]1(C#Cc3cnc(N)nc3)NC(=O)NC1=O)C2` [Compound 453], for which the Ki is below 5 nM.
As to `COc1ccc2c(c1)C(=O)N(C[C@@]1(C#Cc3nccs3)NC(=O)NC1=O)C2` [Compound 454], the inhibitory constant (Ki) was below 5 nM.
`COc1ccc2c(c1)C(=O)N(C[C@@]1(C#Cc3cscn3)NC(=O)NC1=O)C2` [Compound 455]: the Ki was below 5 nM.
The same measure, in the same setting: the figure for `COc1ccc2c(c1)C(=O)N(C[C@@]1(C#Cc3cc(F)cc(Cl)c3)NC(=O)NC1=O)C2` [Compound 456] is below 5 nM; for `COc1ccc2c(c1)C(=O)N(C[C@@]1(C#Cc3c(C)nn(C)c3C)NC(=O)NC1=O)C2` [Compound 457] it is below 5 nM.
`COc1ccc2c(c1)C(=O)N(C[C@@]1(C#Cc3cc(F)cc(C#N)c3)NC(=O)NC1=O)C2` [Compound 458]: the Ki was below 5 nM.
The same measure, in the same setting: with `COc1ccc2c(c1)C(=O)N(C[C@@]1(C#Cc3cccc(C(F)(F)F)c3)NC(=O)NC1=O)C2` [Compound 459] the figure was below 5 nM; with `COc1ccc2c(c1)C(=O)N(C[C@@]1(C#Cc3ccc4nccn4c3)NC(=O)NC1=O)C2` [Compound 460], below 5 nM.
Take `COc1ccc2c(c1)C(=O)N(C[C@@]1(C#Cc3cc(F)cc(F)c3F)NC(=O)NC1=O)C2` [Compound 461]: the Ki is below 5 nM.
As for `COc1ccc2c(c1)C(=O)N(C[C@@]1(C#Cc3cc(Cl)cc(C#N)c3)NC(=O)NC1=O)C2` [Compound 462], the inhibitory constant (Ki) is below 5 nM.
`COc1ccc2c(c1)C(=O)N(C[C@@]1(C#Cc3cccs3)NC(=O)NC1=O)C2` [Compound 463]: the Ki is below 5 nM.
Take `COc1ccc2c(c1)C(=O)N(C[C@@]1(C#Cc3ccsc3)NC(=O)NC1=O)C2` [Compound 464]: the inhibitory constant (Ki) was below 5 nM.
Regarding `COc1ccc2c(c1)C(=O)N(C[C@@]1(C#Cc3csc(C(C)C)n3)NC(=O)NC1=O)C2` [Compound 465], the Ki is below 5 nM.
The same measure, in the same setting: with `COc1ccc2c(c1)C(=O)N(C[C@@]1(C#Cc3c(F)ccc(F)c3F)NC(=O)NC1=O)C2` [Compound 466] the figure was below 5 nM.
Turning to `COc1ccc2c(c1)C(=O)N(C[C@@]1(C#Cc3csc(C)n3)NC(=O)NC1=O)C2` [Compound 467], the inhibition constant Ki was below 5 nM.
In the case of `COc1ccc2c(c1)C(=O)N(C[C@@]1(C#Cc3ncccn3)NC(=O)NC1=O)C2` [Compound 468], the Ki was below 5 nM.
The same measure, in the same setting: the figure for `COc1ccc2c(c1)C(=O)N(C[C@@]1(C#Cc3cnccn3)NC(=O)NC1=O)C2` [Compound 469] is below 5 nM; for `COc1ccc2c(c1)C(=O)N(C[C@@]1(C#Cc3ncnc4ccccc34)NC(=O)NC1=O)C2` [Compound 470] it is below 5 nM; for `COc1ccc2c(c1)C(=O)N(C[C@@]1(C#Cc3cnc(C)s3)NC(=O)NC1=O)C2` [Compound 471] it is below 5 nM.
On the same count and under the same terms, the figure for `COc1ccc2c(c1)C(=O)N(C[C@@]1(C#Cc3ccc(C4CC4)nc3)NC(=O)NC1=O)C2` [Compound 472] is below 5 nM.
Take `COc1ccc2c(c1)C(=O)N(C[C@@]1(C#Cc3cncc(C4(N)CC4)c3)NC(=O)NC1=O)C2` [Compound 480]: the inhibition constant (Ki) is below 5 nM.
Still for that read-out and setting: the figure for `COc1ccc2c(c1)C(=O)N(C[C@@]1(C#Cc3cncc(C#N)c3)NC(=O)NC1=O)C2` [Compound 481] is below 5 nM.

Staying with this assay, now noted: rhTACEc 70 pM, 30 μM SPDL-3, 90 min pre-incubation at 25° C.; read-out: Ki (nM), TACE inhibitory activity.
Regarding `COc1ccc2c(c1)C(=O)N(C[C@@]1(C#Cc3cccnc3)NC(=O)NC1=O)C2` [Compound 400B], the Ki stood at 0.44 nM.
Turning to `COc1ccc2c(c1)C(=O)N(C[C@@]1(C#Cc3cccc4cnccc34)NC(=O)NC1=O)C2` [Compound 442], the Ki came to 0.11 nM.
